Reference: BindingDB's records for doi:10.1021/acs.jmedchem.9b01152 (Universidad De Navarra, 2020)

Molecular target: Histone deacetylase 8 (Homo sapiens) (UniProt Q9BY41)
Assay: Inhibition of human recombinant HDAC8 using RHKAcKAc-AMC substrate by fluorescence based assay

Histone deacetylase 8 (Homo sapiens), sequence (Q9BY41 whole entry, looked up): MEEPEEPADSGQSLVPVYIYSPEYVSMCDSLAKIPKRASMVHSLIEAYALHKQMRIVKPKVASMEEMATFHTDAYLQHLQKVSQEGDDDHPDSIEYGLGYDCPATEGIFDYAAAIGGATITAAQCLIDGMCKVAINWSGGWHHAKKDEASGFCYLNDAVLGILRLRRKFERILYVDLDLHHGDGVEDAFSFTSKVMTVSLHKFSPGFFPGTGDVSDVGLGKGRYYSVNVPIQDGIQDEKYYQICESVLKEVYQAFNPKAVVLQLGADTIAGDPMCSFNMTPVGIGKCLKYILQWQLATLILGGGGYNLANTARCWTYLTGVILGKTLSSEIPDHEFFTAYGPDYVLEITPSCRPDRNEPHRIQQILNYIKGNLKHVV

**Q.** For `O=c1c2ccccc2[se]n1-c1ccccc1` [2-Phenyl-benzo[d]isoselenazol-3-one], which IC50 is on record?
**A.** 1200 nM
